Source: patent US6107316A, “Method for treating protozoal infections” (priority 1998, dated 2000)
Converted amounts (≈) assume the structure as drawn.

Legend:
Giardia lamblia = experiment: in vitro growth inhibitory activity against Giardia lamblia; type: cell-based; conditions: Giardia duodenalis; concentration required to inhibit growth by 50%
Protocol: 35, pp. 2198-2202 (1991). EC50 values for test compounds, expressed in parts per million (ppm), were calculated from dose response curves and are presented in Table 4. As used herein, the terminology "EC50" means the concentration of test compound required to inhibit growth by 50% are compared to a control lacking the test compound. Metronidazole was included as a standard in the tests for comparative purposes.

Leishmania major = experiment: in vitro growth inhibitory activity against L. major promastigotes; type: cell-based
Source text: 35, pp. 2198-2202 (1991).

Tetrahymena pyriformis = experiment: in vitro growth inhibitory activity against the ciliate Tetrahymena pyriformis; type: cell-based, Tetrahymena pyriformis (ATCC strain 30005); conditions: 24 hours, 25° C., read-out: EC50 Tetrahymena pyriformis
Protocol: Compounds were evaluated for in vitro growth inhibitory activity against the ciliate Tetrahymena pyriformis, which was used as an indicator organism for the Apicomplexia since by several criteria the ciliates and Apicomplexa are closely related (Edlind T. D. et al., Mol. Phylogenet. Evol. vol. 5, pp. 359-367, 1996). T. pyriformis (ATCC strain 30005) was grown in 1 ml ATCC medium 357 at 25° C. in 4 ml polyallomer culture tubes without shaking. Compounds were dissolved in dimethylsufoxide (DMSO) and added to the cultures (containing 3,000 cells/ml) such that the final DMSO concentration was 0.1-0.3%. […] Parasitol. vol. 84, pp. 355-370, 1996) and Cryptosporidium parvum (Arrowood et al., FEMS Microbial. Lett., vol. 136, pp. 245-249, 1996) were tested for comparison.

Toxoplasma gondii [1] = experiment: growth inhibition of T. gondii in L929 host cells ([3H]-uracil incorporation); type: cell-based; conditions: Toxoplasma gondii, L929 host cells, read-out: % Inhibition; for inhibition at 0.5 µg/mL: 0.5 μg/ml; for inhibition at 5 µg/mL: 5.0 μg/ml
Protocol: (§1) Compounds were tested for it vitro growth inhibitory activity against Toxoplasma gondii replication in L929 (L929-ATCC CCL 1, mouse connective tissue) or HFF (human foreskin fibroblast) host cells using the [^3 H]-uracil incorporation technique as follows. Host cells were grown in 96-well flat-bottom microtiter plates at 37° C in a 5% carbon dioxide environment in modified Eagle's medium containing penicillin, streptomycin and 10% fetal equine serum. Wells containing a homogeneous confluent monolayer of host cells were infected with T. gondii tachyzoites at a ratio of 3 parasites per cell (approximately 6×10^4 tachyzoites per well containing 100 μl of medium). […] Two hours post infection, the cultures were washed to remove free parasites and the various dilutions of test compound were added. Cells were subsequently collected at 24, 48 and 72 hours. Four hours prior to each harvesting 50 Al of [^3 H]-uracil (1 μCi) was added. Cells were collected using a cell harvester and incorporated radioactivity was measured using a scintillation counter. […]

Toxoplasma gondii [2] = experiment: growth inhibition of T. gondii in HFF host cells ([3H]-uracil incorporation); type: cell-based; conditions: Toxoplasma gondii, HFF host cells, read-out: % Inhibition; for inhibition at 0.5 µg/mL: 0.5 μg/ml; for inhibition at 5 µg/mL: 5.0 μg/ml
Protocol: as §1

[3] = cytotoxicity towards L929 host cells (Cell Titer 96); conditions: mouse, % Inhibition of host cell growth (values in parenthesis)
Protocol: (§2) Cytotoxicity of the test compounds towards host cells was determined using the Cell Titer 96™ it (Promega Corporation, Madison, Wis.) as follows. Cells were seeded at a concentration of 5×10^3 cells per well containing 100 μl of medium in 96-well flat-bottom microtiter plates and incubated at 37° C. in a 5% carbon dioxide environment for 4 hours. Dilutions of the test compounds prepared as described above were then added, and incubation continued for 24, 48 or 72 hours. Four hours before each of these time points the growth medium containing test compound was replaced with 100 μl of fresh medium followed by addition of 16 μl of the kit dye solution. After incubation at 37° C. for another 4 hours, 100 μl of the kit solubilization/stop solution was added to each well, the contents of the wells were mixed and the plates kept 1 hour at room temperature. The plates were then read spectrophotometrically in a plate reader at a wavelength of 570 nm. […] Atovaquone was included in the test as a standard.

[4] = cytotoxicity towards HFF host cells (Cell Titer 96); conditions: human, % Inhibition of host cell growth (values in parenthesis)
Protocol: as §2

Cryptosporidium parvum = experiment: growth inhibitory activity against C. parvum in host MDBKF5D2 cells (immunofluorescence); type: cell-based; conditions: Cryptosporidium parvum, 48 h
Protocol: (§3) Compounds were tested for in vitro growth inhibitory activity against C. parvum grown in host MDBKF5D2 cells and for toxicity towards the host cells as follows. […] To test for toxicity towards the host cells, the media containing test compound (200 μl) were introduced into two wells of a 96 well microtiter plate containing confluent MDBKF5D2 cell monolayers and two wells without monolayers, and incubated at 37° C. in an 8% carbon dioxide environment. After 48 hours, the tetrazolium salt MTS (Owen's solution) and phenazine methosulfate were added to each well at concentrations of 333 μg/ml and 25 μM, respectively. The plate was returned to the incubator in the dark to develop for 2 hours, then 100 μl of each supernatant was transferred to a new microtiter plate and read spectrophotometrically in a plate reader at a wavelength of 490 nm. Percent toxicity was calculated by subtracting the mean optical density (OD) of the drug supernatants from the OD of medium control supernatants (no drug), dividing by the OD of the medium control, and multiplying by 100. To test for growth inhibitory activity against C. parvum, 3×10^4 oocysts per well were incubated in mentioned concentrations of each drug at 37° C. (8% CO2) on confluent MDBKF5D2 cell monolayers in 96 well microtiter plates. After 48 hours, the level of infection in each well was determined by means of an immunofluorescence assay. Percent inhibition of growth was calculated by subtracting the mean parasite count in the wells containing test compound from the mean parasite count in the medium control wells (no test compound), dividing by the mean parasite count in the medium control wells, and multiplying by 100. Paromomycin was included in the test as a standard.

[5] = toxicity towards MDBKF5D2 host cells (MTS); conditions: bovine, mdbkf5d2 cells, Cytotoxicity (percent toxicity)
Protocol: as §3

- EC50 (Giardia lamblia): 0.06 µg/mL (≈ 0.178 µM)
- EC50 (Leishmania major): 0.2 µg/mL (≈ 0.592 µM)
SMILES: CCC(C)(NC(=O)c1cc(Cl)c(N)c(Cl)c1)C(=O)CCl (centres unmarked) [Compound 1]
- EC50 (Tetrahymena pyriformis): 0.02 µg/mL (≈ 0.0592 µM)
- inhibition at 0.5 µg/mL (Toxoplasma gondii [1]; L929, 24 h, 24 hours): 7.8%
- inhibition at 5 µg/mL (Toxoplasma gondii [1]; L929, 24 h, 24 hours): 10.8%
- inhibition at 0.5 µg/mL (Toxoplasma gondii [1]; L929, 48 h, 48 hours): 80.4%
- inhibition at 5 µg/mL (Toxoplasma gondii [1]; L929, 48 h, 48 hours): 75.5%
- inhibition at 0.5 µg/mL (Toxoplasma gondii [1]; L929, 72 h, 72 hours): 95.4%
- inhibition at 5 µg/mL (Toxoplasma gondii [1]; L929, 72 h, 72 hours): 78.2%
- inhibition at 0.5 µg/mL (Toxoplasma gondii [2]; 24 h, 24 hours): 47.6%
- inhibition at 5 µg/mL (Toxoplasma gondii [2]; 24 h, 24 hours): 88%
- inhibition at 0.5 µg/mL (Toxoplasma gondii [2]; 48 h, 48 hours): 96.1%
- inhibition at 5 µg/mL (Toxoplasma gondii [2]; 48 h, 48 hours): 99.3%
- inhibition at 0.5 µg/mL (Toxoplasma gondii [2]; 72 h, 72 hours): 91.3%
- inhibition at 5 µg/mL (Toxoplasma gondii [2]; 72 h, 72 hours): 99.2%
- inhibition at 24 h ([3]; L929, 0.5 μg/ml): 1.5%
- inhibition at 48 h ([3]; L929, 0.5 μg/ml): 11.6%
- inhibition at 72 h ([3]; L929, 0.5 μg/ml): 31.3%
- inhibition at 24 h ([3]; L929, 5.0 μg/ml): 19.7%
- inhibition at 48 h ([3]; L929, 5.0 μg/ml): 61.8%
- inhibition at 72 h ([3]; L929, 5.0 μg/ml): 81.1%
- inhibition at 24 h ([4]; 0.5 μg/ml): 1.6%
- inhibition at 48 h ([4]; 0.5 μg/ml): 0%
- inhibition at 72 h ([4]; 0.5 μg/ml): 1.4%
- inhibition at 24 h ([4]; 5.0 μg/ml): 14.7%
- inhibition at 48 h ([4]; 5.0 μg/ml): 13.5%
- inhibition at 72 h ([4]; 5.0 μg/ml): 47.6%
- inhibition at 0.1 µM (Cryptosporidium parvum; 0.1 μM): 23.1%
- inhibition at 1 µM (Cryptosporidium parvum; 1.0 μM): 29.2%
- inhibition at 10 µM (Cryptosporidium parvum; 10 μM): 34.2%
- inhibition at 100 µM (Cryptosporidium parvum; 100 μM): 81.1%
- cytotoxicity at 48 h, 0.1 µM ([5]; 0.1 μM): 0%
- cytotoxicity at 48 h, 1 µM ([5]; 1.0 μM): 0%
- cytotoxicity at 48 h, 10 µM ([5]; 10 μM): 19.9%
- cytotoxicity at 48 h, 100 µM ([5]; 100 μM): 35.7%
